In patent publication US11498915B2, “TrkA Inhibitor” (Eli Lilly and Company, priority 2020, dated 2022):

Columns and labels:
hTrkA [1] = target: T1, hTrkA (Homo sapiens, UniProt P04629); assay: PathHunter cell-based assay, inhibition of SH2 domain protein recruitment, hTrkA-p75 U2OS cells; design: host or cells: U2OS (human bone osteosarcoma epithelial cells), PathHunter hTrkA-p75
Excerpt: (§1) In Vitro Inhibition of SH2 Domain Protein Recruitment in Human Bone Osteosarcoma Epithelial Cells by Human Tropomyosin Receptor Kinase (hTrk) Inhibitors
(§2) Activation of hTrkA, TrkB or TrkC is examined using PathHunter® (DiscoverX) enzyme fragment complementation technology. In this approach, one fragment of β-galactosidase (β-gal) ProLink (PK) is fused to the C-terminal of the Trk receptor and co-expressed with a phosphotyrosine SH2 domain protein fused with the remaining fragment of β-gal, Enzyme Acceptor (EA), in human Bone Osteosarcoma Epithelial (hU2OS) cells also expressing the p75 neurotrophic receptor (DiscoverX). Activation of hTrk receptors by agonists results in receptor phosphorylation. The SH2-EA fusion protein binds the phosphorylated hTrk receptor resulting in complementation of PK and EA to form an active β-gal enzyme. β-gal enzymatic activity is quantitatively measured using a chemiluminescent substrate in the PathHunter® detection kit (DiscoverX). […]
(§3) Inhibition of hTrk kinase activity: The activity of hTrkA and hTrkC kinase is quantitated using Pathhunter® technology (DiscoverX) as per vendor instructions.
(§4) Briefly, on the assay day, compounds for dose-response studies are serially diluted in dimethyl sulfoxide (1:3 for 10 concentrations) using an acoustic dispensing instrument Echo Access (Labcyte) and dispensed into cell plates that are subsequently incubated at room temperature (RT) for one hour. […] Pathhunter® detection reagents (DiscoverX) are added and plates are read in an ENVISION® plate reader (Perkin-Elmer) at 700 nm after 1 h incubation at RT in the dark. […]
(§5) Data Analysis: The data are converted into % Inhibition and relative IC50 values are calculated from the top-bottom range of the concentration response curve using a four-parameter logistic curve fitting program (GENEDATA SCREENER® v13.0.5) with the equation Y=Bottom+(Top-Bottom)/(1+10^((Log IC50−X)*HillSlope)). […]
Target sequence in this assay (P04629 33-796): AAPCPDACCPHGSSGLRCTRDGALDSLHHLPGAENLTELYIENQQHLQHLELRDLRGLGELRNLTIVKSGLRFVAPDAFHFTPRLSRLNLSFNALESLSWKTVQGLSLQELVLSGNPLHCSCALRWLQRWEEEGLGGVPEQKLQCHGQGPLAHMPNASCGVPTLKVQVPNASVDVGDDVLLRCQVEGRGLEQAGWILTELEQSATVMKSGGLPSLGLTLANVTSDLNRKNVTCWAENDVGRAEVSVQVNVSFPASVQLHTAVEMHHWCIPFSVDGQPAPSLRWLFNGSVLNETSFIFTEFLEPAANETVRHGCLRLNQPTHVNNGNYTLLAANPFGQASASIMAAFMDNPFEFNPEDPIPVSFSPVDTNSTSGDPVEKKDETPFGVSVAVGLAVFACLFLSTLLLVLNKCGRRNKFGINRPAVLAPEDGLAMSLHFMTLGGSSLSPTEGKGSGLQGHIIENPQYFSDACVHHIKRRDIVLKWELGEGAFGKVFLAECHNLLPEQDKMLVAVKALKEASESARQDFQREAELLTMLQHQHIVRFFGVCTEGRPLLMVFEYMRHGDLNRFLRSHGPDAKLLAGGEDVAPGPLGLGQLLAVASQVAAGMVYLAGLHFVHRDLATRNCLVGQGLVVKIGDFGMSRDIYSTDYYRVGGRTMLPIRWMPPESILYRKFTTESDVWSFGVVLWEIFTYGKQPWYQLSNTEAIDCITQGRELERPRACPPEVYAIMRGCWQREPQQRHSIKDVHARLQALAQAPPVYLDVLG

hTrkB [2] = target: T2, hTrkB (Homo sapiens, UniProt Q16620); assay: hTrk kinase TR-FRET assay (headed Binding Assays), hTrkB kinase domain; assay type: biochemical; design: hTrkB, aa: 526-838; settings: hTrkB kinase domain aa 526-838, N = 1, read-out: Relative IC50 hTrkB, Binding Assays
Excerpt: (§6) Human Tropomyosin Receptor Kinase (hTrkA, hTrkB, hTrkC) Assays to Examine hTrk Kinase Inhibitors
(§7) The reaction of non-phosphorylated hTrk kinase domains (hTrkA, aa: 441-796, hTrkB, aa: 526-838 or hTrkC, aa: 510-825) with a fluorescein-labeled poly-GT substrate (poly-GT, Invitrogen) generates a fluorescein-labeled phosphorylated product. Binding of the terbium-labeled antibody (Invitrogen) to the phosphorylated tyrosine product brings the terbium and fluorescein into proximity, resulting in an increase in time-resolved fluorescence resonance energy transfer (TR-FRET). In the presence of an inhibitor, formation of phosphorylated product is reduced, and the TR-FRET value is decreased.
(§8) Inhibition of hTrk kinase activity: The activity of human tropomyosin receptor hTrk kinase is quantitated using TR-FRET technology (Invitrogen) as per vendor instructions. Briefly, compounds for dose-response studies are serially diluted in dimethyl sulfoxide (1:2 for 20 concentrations) using an acoustic dispensing instrument Echo Access (Labcyte) and dispensed into ProxiPlate-384 plus plates (PerkinElmer). […] EDTA and terbium-labeled antibody are added and plates are incubated at RT for one hour after which the TR-FRET signal is detected using an ENVISION® plate reader (Perkin-Elmer). The ratio of fluorescence at 520 to 495 nm is calculated. […]
Target sequence in this assay (Q16620 510-822): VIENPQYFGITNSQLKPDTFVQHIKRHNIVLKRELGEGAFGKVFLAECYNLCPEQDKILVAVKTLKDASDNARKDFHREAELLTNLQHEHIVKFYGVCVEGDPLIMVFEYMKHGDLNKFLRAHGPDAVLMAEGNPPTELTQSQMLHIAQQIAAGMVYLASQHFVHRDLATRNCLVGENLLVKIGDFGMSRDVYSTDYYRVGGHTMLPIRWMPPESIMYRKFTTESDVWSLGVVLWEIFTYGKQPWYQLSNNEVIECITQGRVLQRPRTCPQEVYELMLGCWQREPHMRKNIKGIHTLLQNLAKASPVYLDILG

hTrkB [3] = target: T2, hTrkB; assay: PathHunter cell-based assay, inhibition of SH2 domain protein recruitment, hTrkB-p75 U2OS cells; design: host or cells: U2OS (human bone osteosarcoma epithelial cells), PathHunter hTrkB-p75
Excerpt: as §1, §2, §3, §4, §5
Target sequence in this assay (Q16620 32-822): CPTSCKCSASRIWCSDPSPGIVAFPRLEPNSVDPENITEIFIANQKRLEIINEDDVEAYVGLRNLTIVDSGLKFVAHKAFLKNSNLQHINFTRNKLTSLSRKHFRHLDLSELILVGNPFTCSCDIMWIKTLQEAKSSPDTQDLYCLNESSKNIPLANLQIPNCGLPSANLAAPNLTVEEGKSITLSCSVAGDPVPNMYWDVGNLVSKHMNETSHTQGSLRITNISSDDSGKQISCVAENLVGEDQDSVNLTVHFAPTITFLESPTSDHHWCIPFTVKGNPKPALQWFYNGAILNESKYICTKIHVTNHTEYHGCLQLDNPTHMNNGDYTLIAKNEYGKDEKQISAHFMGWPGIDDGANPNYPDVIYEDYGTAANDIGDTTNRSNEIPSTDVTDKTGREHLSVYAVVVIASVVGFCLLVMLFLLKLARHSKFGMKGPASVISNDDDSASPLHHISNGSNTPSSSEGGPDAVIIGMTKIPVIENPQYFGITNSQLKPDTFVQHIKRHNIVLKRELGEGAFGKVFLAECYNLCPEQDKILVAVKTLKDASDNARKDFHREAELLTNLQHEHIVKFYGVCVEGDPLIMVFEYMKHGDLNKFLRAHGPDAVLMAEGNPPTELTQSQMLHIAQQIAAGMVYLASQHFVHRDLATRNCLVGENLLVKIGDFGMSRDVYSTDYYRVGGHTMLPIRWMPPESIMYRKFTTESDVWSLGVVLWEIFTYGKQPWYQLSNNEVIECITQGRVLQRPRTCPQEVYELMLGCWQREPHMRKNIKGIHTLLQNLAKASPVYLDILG

hTrkC [4] = target: T3, hTrkC (Homo sapiens, UniProt Q16288); assay: hTrk kinase TR-FRET assay (headed Binding Assays), hTrkC kinase domain; assay type: biochemical; design: hTrkC, aa: 510-825; settings: hTrkC kinase domain aa 510-825, N = 1, read-out: Relative IC50 hTrkC, Binding Assays
Excerpt: as §6, §7, §8
Target sequence in this assay (Q16288 510-825 isoform Q16288-3): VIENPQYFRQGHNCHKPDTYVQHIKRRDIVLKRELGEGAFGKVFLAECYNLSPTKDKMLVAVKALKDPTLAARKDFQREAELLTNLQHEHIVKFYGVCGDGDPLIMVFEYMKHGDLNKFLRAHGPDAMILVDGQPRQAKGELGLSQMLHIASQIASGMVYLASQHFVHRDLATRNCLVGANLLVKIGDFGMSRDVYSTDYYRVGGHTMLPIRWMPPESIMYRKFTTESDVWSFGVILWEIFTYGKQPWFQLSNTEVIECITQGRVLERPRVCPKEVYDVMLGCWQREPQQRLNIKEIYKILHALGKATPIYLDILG

hTrkA [5] = target: T1, hTrkA; assay: hTrk kinase TR-FRET assay (headed Binding Assays), hTrkA kinase domain; assay type: biochemical; design: hTrkA, aa: 441-796; settings: hTrkA kinase domain aa 441-796, N = 4, read-out: Relative IC50 hTrkA, Binding Assays
Excerpt: as §6, §7, §8
Target sequence in this assay (P04629 441-796): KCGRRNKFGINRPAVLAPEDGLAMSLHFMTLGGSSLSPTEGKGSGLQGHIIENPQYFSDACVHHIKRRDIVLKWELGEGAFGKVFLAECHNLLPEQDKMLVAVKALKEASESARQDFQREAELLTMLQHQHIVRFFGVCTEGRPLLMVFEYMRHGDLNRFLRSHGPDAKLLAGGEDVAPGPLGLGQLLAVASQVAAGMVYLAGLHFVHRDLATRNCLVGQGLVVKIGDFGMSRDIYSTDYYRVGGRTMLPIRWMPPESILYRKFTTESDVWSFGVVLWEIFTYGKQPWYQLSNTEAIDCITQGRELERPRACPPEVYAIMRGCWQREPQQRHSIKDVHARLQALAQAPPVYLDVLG

hTrkC [6] = target: T3, hTrkC; assay: PathHunter cell-based assay, inhibition of SH2 domain protein recruitment, hTrkC-p75 U2OS cells; design: host or cells: U2OS (human bone osteosarcoma epithelial cells), PathHunter hTrkC-p75
Excerpt: as §1, §2, §3, §4, §5
Target sequence in this assay (Q16288 32-839): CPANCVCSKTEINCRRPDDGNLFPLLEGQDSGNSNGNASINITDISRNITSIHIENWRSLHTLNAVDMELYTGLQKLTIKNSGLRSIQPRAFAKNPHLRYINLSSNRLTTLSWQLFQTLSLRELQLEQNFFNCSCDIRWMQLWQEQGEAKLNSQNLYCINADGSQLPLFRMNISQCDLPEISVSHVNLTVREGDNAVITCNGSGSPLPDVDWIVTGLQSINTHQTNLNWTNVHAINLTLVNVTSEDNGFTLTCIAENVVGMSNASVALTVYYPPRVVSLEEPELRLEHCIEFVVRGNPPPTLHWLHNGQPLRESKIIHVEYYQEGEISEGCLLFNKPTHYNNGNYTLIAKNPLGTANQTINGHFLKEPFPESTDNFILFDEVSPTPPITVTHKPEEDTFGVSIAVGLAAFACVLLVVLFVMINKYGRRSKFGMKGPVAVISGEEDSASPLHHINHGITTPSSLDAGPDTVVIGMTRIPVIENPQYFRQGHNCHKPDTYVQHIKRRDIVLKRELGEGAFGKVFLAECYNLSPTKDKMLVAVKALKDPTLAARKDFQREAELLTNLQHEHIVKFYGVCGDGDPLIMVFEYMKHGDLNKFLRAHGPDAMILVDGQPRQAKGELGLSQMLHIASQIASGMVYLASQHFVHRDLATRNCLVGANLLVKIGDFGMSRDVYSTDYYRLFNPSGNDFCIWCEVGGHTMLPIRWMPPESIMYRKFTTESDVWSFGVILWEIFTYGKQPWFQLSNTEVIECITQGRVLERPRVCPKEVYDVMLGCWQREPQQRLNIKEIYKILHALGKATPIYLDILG

Trk A = Trk A (Homo sapiens, UniProt P04629); assay: Trk A IC50 values listed in Table 2 of U.S. Pat. No. 9,815,846; settings: 14 divided by 0.069; phenyl ring versus pyridine ring
[7] = Table 2 comparative data, Example 1 values are the PathHunter values of Table 1, read-out: hTrkA IC50
[8] = Table 2 comparative data, Example 1 values are the PathHunter values of Table 1, read-out: hTrkB IC50
[9] = Table 2 comparative data, Example 1 values are the PathHunter values of Table 1, read-out: hTrkC IC50

Sequence of Trk A (P04629 33-796, species assumed): as the sequence (P04629 33-796) above

**Q.** Which IC50 (hTrkA [1]; hU2OS hTrkA-p75 cells, hNGF 27 ng/ml, N = 32, read-out: Relative IC50 hTrkA, PathHunter cell-based assay) does the source give for `Cn1ccc(-c2cc(C(=O)Nc3cncc(C(N)=O)c3-c3ccccn3)c(F)cc2C(F)(F)F)n1` [Example 1, 5-[[2-fluoro-5-(1-methylpyrazol-3-yl)-4-(trifluoromethyl)benzoyl]amino]-4-(2-pyridyl)pyridine-3-carboxamide] here?
**A.** 1.24 nM

**Q.** And the IC50 (hTrkB [2])?
**A.** > 4290 nM

**Q.** What about the IC50 (hTrkB [3]; hU2OS hTrkB-p75 cells, hBDNF 20 ng/ml, N = 25, read-out: Relative IC50 hTrkB, PathHunter cell-based assay) of the same compound?
**A.** 6700 nM

**Q.** What about the IC50 (hTrkC [4]) of the same compound?
**A.** 8360 nM

**Q.** And the IC50 (hTrkA [5])?
**A.** 1.09 nM

**Q.** And the IC50 (hTrkC [6]; hU2OS hTrkC-p75 cells, hNT-3 29 ng/ml, N = 24, read-out: Relative IC50 hTrkC, PathHunter cell-based assay)?
**A.** 9010 nM

**Q.** With `Cn1ccc(-c2cc(C(=O)Nc3cc(C(N)=O)cnc3-c3ccccc3)ccc2C(F)(F)F)n1` [Example 89 of US Patent No. 9815846] as the compound, how does the IC50 (hTrkA [1]; [7]) read?
**A.** 1.55 nM

**Q.** And the IC50 (hTrkB [3]; [8])?
**A.** 713 nM

**Q.** And the IC50 (hTrkC [6]; [9])?
**A.** 452 nM

**Q.** What does the source list for `Cn1ccc(-c2cc(C(=O)Nc3cc4c(nc3-c3ccccn3)CCNC4=O)c(F)cc2C(F)(F)F)n1` [Example 141 of US Patent No. 9815846]?
**A.** IC50 (hTrkA [1]; [7]): 11.1 nM; IC50 (hTrkB [3]; [8]): > 47900 nM; IC50 (hTrkC [6]; [9]): 37800 nM

**Q.** `Cn1ccc(-c2cc(C(=O)Nc3cc4c(nc3-c3ccccc3)CCNC4=O)c(F)cc2C(F)(F)F)n1` [Example 152] was tested. Which “effect on the potency at TrkA, Example 141 IC50 divided by Example 152 IC50” value (Trk A) did it give?
**A.** 202.9 fold
